The results in this text go back to PubChem BioAssay (NCI).

The structures appear in SMILES notation.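 Where inhibition never reached the appropriate level, the endpoint shown equals the highest concentration tested. Otherwise, values were interpolated linearly from a five-concentration, 48-hour dose response in 96-well plates. TGI: total growth inhibition.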

What all share (assay): DTP human tumour cell line panel, 48 h
Experiment [1] concerns UACC-257 melanoma.
Experiment [2] relates to K-562 leukemia.
Experiment [3] relates to HOP-92 NSCLC.
In experiment [4] the test system is SF-268 CNS.
Experiment [5] deals with SK-MEL-5 melanoma.
Experiment [6] deals with SK-MEL-2 melanoma.
For experiment [7], the system named is OVCAR-4 ovarian.
Experiment [8] concerns U251 CNS.
Experiment [9] concerns HOP-62 NSCLC.
In experiment [10] the test system is HL-60(TB) leukemia.
Experiment [11] relates to SW-620 colon.
Experiment [12] deals with CCRF-CEM leukemia.
Experiment [13] has as its system UACC-62 melanoma.

What is called TGI is the concentration at which net growth stops. Low values mean greater sensitivity of the cells, high ones lower sensitivity of the cells. With `CC(C)Cn1cnnc1NS(=O)(=O)c1cc(C(=O)NN)c(Cl)cc1S`, the TGI in experiment [1], in [2], in experiment [3], in experiment [4], in [5] and in experiment [6] was greater than 10 µM in each case. The TGI in [7], in [8], in experiment [9], in [10], in experiment [11] and in [12] was greater than 10 µM each time. Moreover, the TGI in experiment [13] was greater than 10 µM.

As for `N=C1SCCS1`, the TGI in experiment [1], in experiment [2], in [3], in experiment [4], in experiment [5] and in experiment [6] was greater than 100 µM in each case. Besides, the TGI in [7], in experiment [8], in experiment [9], in experiment [10], in experiment [11] and in [12] was greater than 100 µM in each case. In addition, in experiment [13], the TGI is greater than 100 µM.

As for `Nc1nc(Cl)c(N)c(NCC2(CO)CC(O)C2)n1` (stereo not given), the TGI in [1], in [2], in [3], in experiment [4], in [5] and in experiment [6] was greater than 100 µM each time. The TGI in [7], in [8], in [9], in experiment [10], in experiment [11] and in experiment [12] was greater than 100 µM in each case. Further, the TGI in [13] was greater than 100 µM.

Take `c1cc(-c2ccc(Oc3ccc(-c4ccncc4)cc3)cc2)ccn1`: the TGI was greater than 68.3 µM in [1]; greater than 100 µM in experiment [2]; greater than 88.6 µM in experiment [3]; greater than 100 µM in experiment [4]; 5.52 µM in experiment [5]; greater than 100 µM in experiment [6]. The TGI is greater than 100 µM in experiment [7]; greater than 48.8 µM in experiment [8]; greater than 100 µM in [9]; 11.1 µM in [10]; greater than 100 µM in experiment [11]; greater than 47.3 µM in experiment [12]. In addition, the TGI in experiment [13] is greater than 100 µM.

Consider `COC(=O)[C@@H](COC(=O)/C=C/c1ccc(OC(C)=O)c(OC(C)=O)c1)NC(=O)/C=C/c1ccc(OC(C)=O)c(OC(C)=O)c1`, for which the TGI in experiment [1] is greater than 100 µM; in [2], greater than 100 µM; in experiment [3], greater than 100 µM; in experiment [4] it was greater than 100 µM; in experiment [5] it was 30 µM; in experiment [6], 55.4 µM. Besides, the TGI is 57.8 µM in experiment [7]; greater than 100 µM in [8]; 75.5 µM in experiment [9]; greater than 100 µM in experiment [10]; greater than 100 µM in [11]; greater than 100 µM in [12]. The molecule further returned a TGI in experiment [13] of 45.9 µM.

For the molecule `CSc1ccc(C=C2N=C(c3ccccc3)N(c3cc(C(=O)c4ccccc4)ccc3N3C(=O)/C(=C/c4ccc(SC)cc4)N=C3c3ccccc3)C2=O)cc1`, the TGI in experiment [1], in experiment [2], in [3], in experiment [4], in experiment [5] and in [6] was greater than 100 µM each time. Moreover, the TGI in experiment [7] is greater than 100 µM; in experiment [8], greater than 100 µM; in [9], greater than 100 µM; in experiment [10], greater than 100 µM; in [11], greater than 100 µM; in experiment [12], 62.4 µM. In experiment [13], this molecule registered a concentration for total growth inhibition (TGI) greater than 100 µM.

Consider `O=Cc1cc(O)ccc1Br`, for which the TGI was greater than 91.1 µM in [1]; 19.2 µM in experiment [2]; 75.7 µM in experiment [3]; greater than 100 µM in experiment [4]; 98.2 µM in experiment [5]; greater than 93.2 µM in [6]. For the same molecule, the TGI in [7] was greater than 65.7 µM; in [8], 41.3 µM; in experiment [9], greater than 96.2 µM; in experiment [10], 5.39 µM; in experiment [11], greater than 100 µM; in [12], 15.5 µM. This molecule also registered a TGI in experiment [13] of 50.4 µM.

As for `C[N+](C)(C)C(Cc1c[nH]c(=S)[nH]1)C(=O)O` (stereo not given), the TGI in experiment [1], in experiment [2], in experiment [3], in experiment [4], in experiment [5] and in [6] was greater than 100 µM in each case. Further, the TGI in experiment [7], in [8], in experiment [9], in experiment [10], in experiment [11] and in experiment [12] was greater than 100 µM each time. This molecule yielded a TGI in experiment [13] greater than 100 µM.

Turning to `Brc1ccc(C2(N3CCCCC3)CCCCC2)s1`, the total growth inhibition concentration (TGI) in [1] was 94.6 µM; in [2], 52.5 µM; in [3], 51.2 µM; in experiment [4], greater than 100 µM; in [5], 22.3 µM; in experiment [6] it was 37 µM. Also, the TGI in experiment [7] is greater than 100 µM; in experiment [8], greater than 100 µM; in experiment [9] it was greater than 100 µM; in experiment [10], 41.8 µM; in experiment [11], greater than 100 µM; in [12] it was 39.2 µM. Besides, the TGI in experiment [13] is greater than 100 µM.

For the molecule `NC(=S)NS(=O)(=O)c1ccc(F)cc1`, the TGI in experiment [1], in experiment [2], in experiment [3], in experiment [4], in experiment [5] and in experiment [6] was greater than 100 µM each time. Besides, the TGI in [7], in experiment [8], in experiment [9], in [10], in [11] and in experiment [12] was greater than 100 µM in each case. In experiment [13], the TGI was greater than 100 µM.

For `Nc1cccc2cc(S(=O)(=O)Nc3ccc(C(=O)O)cc3)ccc12`, the TGI in experiment [1], in [2], in [3], in experiment [4], in experiment [5] and in experiment [6] was greater than 100 µM throughout. Also, the TGI in experiment [7], in experiment [8], in [9], in experiment [10], in experiment [11] and in [12] was greater than 100 µM each time. In [13], this molecule registered a TGI greater than 100 µM.

Take `CCCN=C1S/C(=C/c2ccc(OC)c(OC)c2)C(=O)N1c1ccccc1`: the TGI in experiment [1] was greater than 100 µM; in experiment [2], greater than 100 µM; in experiment [3] it was greater than 100 µM; in [4] it was greater than 100 µM; in experiment [5], greater than 100 µM; in experiment [6], 85.8 µM. The TGI was 80.6 µM in [7]; 38.7 µM in [8]; 15.2 µM in experiment [9]; greater than 100 µM in [10]; greater than 100 µM in [11]; greater than 100 µM in experiment [12]. The same molecule gave a TGI in experiment [13] greater than 100 µM.

For `Cc1cc2c(cc1-c1cc3c(cc1C)C(C(C)C)=C(O)C(=O)/C3=C\Nc1cccc3c(N)cccc13)/C(=C/Nc1cccc3c(N)cccc13)C(=O)C(O)=C2C(C)C`, the TGI in experiment [1], in experiment [2], in experiment [3], in [4], in [5] and in experiment [6] was greater than 100 µM in each case. For the same molecule, the TGI in [7], in experiment [8], in experiment [9], in experiment [10], in experiment [11] and in experiment [12] was greater than 100 µM in each case. The same molecule registered a TGI in experiment [13] greater than 100 µM.

As for `COc1cc([C@@H]2c3cc4c(cc3[C@@H](N=Cc3ccc(C(=O)O[C@H]5C[C@H]6OC[C@@]6(OC(C)=O)[C@H]6[C@H](OC(=O)c7ccccc7)[C@]7(O)C[C@H](OC(=O)[C@H](OC(=O)c8ccc(C=N[C@@H]9c%10cc%11c(cc%10[C@@H](c%10cc(OC)c(O)c(OC)c%10)[C@H]%10C(=O)OC[C@@H]%109)OCO%11)cc8)[C@@H](NC(=O)c8ccccc8)c8ccccc8)C(C)=C([C@@H](OC(C)=O)C(=O)[C@]56C)C7(C)C)cc3)C3COC(=O)C32)OCO4)cc(C)c1O` (stereo not given in full), the TGI in experiment [1], in experiment [2], in experiment [3], in experiment [4], in [5] and in experiment [6] was greater than 50 µM throughout. The concentration for total growth inhibition (TGI) in [7] was greater than 50 µM; in experiment [8], greater than 31.6 µM; in experiment [9], greater than 50 µM; in experiment [10], greater than 50 µM; in experiment [11], greater than 50 µM; in experiment [12], greater than 50 µM. The TGI in [13] is greater than 39.2 µM.

Consider `COc1cc(/C=C2\N=C(c3ccccc3)N(/N=C/c3cc4cc(C)ccc4nc3Cl)C2=O)ccc1O`, for which the TGI in [1] is greater than 100 µM; in [2] it was greater than 100 µM; in experiment [3], greater than 100 µM; in experiment [4], greater than 100 µM; in experiment [5] it was greater than 100 µM; in experiment [6], 38.4 µM. The TGI in [7] was greater than 100 µM; in experiment [8], greater than 100 µM; in experiment [9], greater than 100 µM; in experiment [10], 76.6 µM; in experiment [11], greater than 100 µM; in experiment [12] it was 36 µM. The TGI in experiment [13] was greater than 100 µM.

Consider `ClCc1nc2cc(Cl)ccc2o1`, for which the total growth inhibition concentration (TGI) is 22.8 µM in [1]; greater than 100 µM in [2]; 3.87 µM in experiment [3]; 26.7 µM in [4]; 25.8 µM in experiment [5]; 16 µM in experiment [6]. In addition, the TGI in [7] was 3.45 µM; in experiment [8], 9.13 µM; in experiment [9], 8.28 µM; in experiment [10], 21.1 µM; in experiment [11], greater than 67.2 µM; in experiment [12], greater than 25.7 µM. The molecule also came in with a TGI in experiment [13] of 23.1 µM.

Regarding `CC(=O)NC1C(OCc2ccccc2)OC(CO)C(O)C1OCC(=O)NC(C)C(=O)NC(CCC(=O)Nc1ccc2c(c1)CN1C(=O)c3ccccc3C1=N2)C(N)=O` (stereo not given), the TGI in experiment [1], in experiment [2], in [3], in [4], in [5] and in experiment [6] was greater than 100 µM each time. The TGI in experiment [7], in [8], in [9], in experiment [10], in [11] and in experiment [12] was greater than 100 µM in each case. In experiment [13], this molecule yielded a TGI greater than 100 µM.

As to `CC(C)=CCc1c(O)c(CC=C(C)C)c2oc3c(c(=O)c2c1O)C(C=C(C)C)Oc1cc(O)ccc1-3` (stereo not given), the TGI in experiment [1] came out at 26.9 µM; in experiment [2], 16.6 µM; in [3], 28.3 µM; in [4] it was 28 µM; in experiment [5] it was 21.5 µM; in experiment [6] it was 7.93 µM. The TGI was determined as 23.3 µM in [7]; 16.7 µM in experiment [8]; 31 µM in [9]; 29.8 µM in experiment [10]; 18.1 µM in [11]; 7.68 µM in experiment [12]. Further, the TGI in experiment [13] stood at 18 µM.

Consider `O=C(c1no[n+]([O-])c1C(=O)c1csc2ccccc12)c1csc2ccccc12`, for which the TGI in experiment [1] is 16.3 µM; in experiment [2], 3.73 µM; in [3], 5.01 µM; in experiment [4] it was 23.2 µM; in [5], 26.1 µM; in experiment [6], 20.7 µM. In addition, the TGI was 7.3 µM in experiment [7]; 22.7 µM in [8]; 25.4 µM in experiment [9]; 0.0737 µM in experiment [10]; 5.85 µM in experiment [11]; 0.267 µM in [12]. The TGI in experiment [13] was 25.7 µM.

As to `CC(C)c1cc(C(C)C)c(P2(=O)CC3C(Cl)(Cl)C3(C)C2)c(C(C)C)c1` (stereo not given), the TGI in [1] is 20.9 µM; in [2] it was greater than 44.1 µM; in experiment [3] it was 27.3 µM; in experiment [4], 25.3 µM; in experiment [5], 22.4 µM; in experiment [6] it was 24.8 µM. The TGI was 11.8 µM in [7]; 22 µM in [8]; 29 µM in experiment [9]; 10.7 µM in experiment [10]; 26.4 µM in experiment [11]; 6.03 µM in [12]. Further, in experiment [13], the TGI turned out to be 21.3 µM.
